Experiments:
human α7 nAChR = molecular target: T1, human α7 nAChR (Homo sapiens, UniProt P36544); assay: Two-electrode voltage clamping of human α7 nAChR expressed in Xenopus oocytes (net-charge / peak current relative to 60 μM ACh); type: cell-based; settings: for Potentiated response: 30 μM test compound + 10 μM PNU-120596 co-application; for Potentiated response / Relative response: relative to 60 μM ACh control, mean ± SEM, N ≥ 4; for Relative response: net-charge response to 30 μM test compound alone; for functional classification at α7 nAChR: 30 μM alone and with 10 μM PNU-120596, partial agonist = net charge > 1/10th ACh control
T1 construct: expressed in transfected cells; host or cells: Xenopus oocytes
Experimental: Electrophysiology: The panel of compounds synthesized was assayed using human α7 nAChR expressed in Xenopus oocytes and two-electrode voltage clamping. The partial agonism activity was evaluated, quantified as net-charge for 30 μM applications of compounds, measured relative to the control response to applications of 60 μM ACh. The induction of PAM-sensitive desensitization was detected as the net-charge responses when compounds were co-applied with the PAM PNU-120596 (30 μM compound+10 μM PNU-120596), measured relative to responses to 60 μM ACh applied alone. […] It is a unique property of α7 orthosteric agonist-induced currents that they vary systematically in the relationship between peak current and net charge as a function of the effective concentration applied (Papke & Papke (2002) Br. J. Pharm. 137: 49-61; Papke & Thinschmidt (1998) Neurosci. Let. 256: 163-166). This was due to the concentration-dependent desensitization of the receptors, which is likely to be associated with high levels of agonist binding site occupancy (Williams et al., (2011) J. Gen. Physiol. 137: 369-384) and is observed even when agonists are rapidly applied to small cells (Williams et al., (2012) Mol. Pharmacol. 82: 746-759) or acutely dissociated neurons (Uteshev et al., (2002) Brain Res. 948: 33-46). The control ACh concentration used for these experiments is roughly the EC80 for the net-charge responses.
By normalizing both the peak currents and net-charge measurements of the drug responses at the probe concentration of 30 μM (FIG. 3B) to those of the ACh control, the relationship between the probe concentration and the EC for each of the drugs was estimated (Papke, R. L. (2005) Life Sci.). At a concentration where the ratio of the normalized measures equaled one, the drug would be at the same effective concentration as 60 μM ACh.
Electrophysiology: New compounds were assayed for activity with the α7 nAChR expressed in Xenopus oocytes using two-electrode voltage clamping as previously described in Papke et al., (2014) J. Pharmacol. Experimental Therap. 350: 665-680, incorporated herein by reference in its entirety, and compared to responses evoked by 60 μM Ach (FIGS. 5 and 6). The compound set was assayed at a concentration of 30 μM to provide a standard comparison benchmark.
Based on earlier experience this concentration is high enough to provide an observable response and low enough to avoid possible complications such as channel block. The net-charge response for each compound application is reported relative to those for ACh control applications. Data were expressed as the mean ±S.E.M. from at least four oocytes for each experiment and were plotted by Kaleidagraph (Abelbeck Software, Reading, Pa.).

α4β2 nAChR = α4β2 nAChR (Homo sapiens, UniProt P17787+P43681); assay: Receptor subtype specificity: α4β2 nAChR activation / antagonism; type: cell-based; settings: for antagonist activity at α4β2: 100 μM
α3β4 nAChR = α3β4 nAChR (Homo sapiens, UniProt P30926+P32297); assay: Receptor subtype specificity: α3β4 nAChR activation / antagonism; type: cell-based; settings: 100 μM
[1] = test system: LPS-stimulated secretion of TNF-α in rat cultured microglia; settings: cited from earlier work
mouse pain models = settings: formalin- and acetic acid-induced nociceptive conditions, chronic constrictive nerve injury; cited from earlier work

α4β2 nAChR, sequence (P43681 29-627 limits assumed): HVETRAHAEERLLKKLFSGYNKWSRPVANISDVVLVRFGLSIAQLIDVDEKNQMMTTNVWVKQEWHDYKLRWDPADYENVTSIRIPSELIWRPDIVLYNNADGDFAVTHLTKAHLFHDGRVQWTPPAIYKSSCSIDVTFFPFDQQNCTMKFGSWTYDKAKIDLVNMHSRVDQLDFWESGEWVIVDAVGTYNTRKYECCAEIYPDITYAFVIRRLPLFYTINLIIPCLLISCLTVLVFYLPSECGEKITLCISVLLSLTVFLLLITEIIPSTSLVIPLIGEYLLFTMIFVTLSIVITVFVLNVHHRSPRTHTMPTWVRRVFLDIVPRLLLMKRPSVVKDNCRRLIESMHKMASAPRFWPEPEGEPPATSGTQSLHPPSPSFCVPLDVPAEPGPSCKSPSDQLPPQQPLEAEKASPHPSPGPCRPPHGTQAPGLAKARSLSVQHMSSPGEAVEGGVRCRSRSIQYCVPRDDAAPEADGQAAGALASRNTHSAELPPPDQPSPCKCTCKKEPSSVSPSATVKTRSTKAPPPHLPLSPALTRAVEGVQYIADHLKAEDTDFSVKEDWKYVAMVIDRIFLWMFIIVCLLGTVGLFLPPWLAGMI
α4β2 nAChR, sequence (P17787 26-502): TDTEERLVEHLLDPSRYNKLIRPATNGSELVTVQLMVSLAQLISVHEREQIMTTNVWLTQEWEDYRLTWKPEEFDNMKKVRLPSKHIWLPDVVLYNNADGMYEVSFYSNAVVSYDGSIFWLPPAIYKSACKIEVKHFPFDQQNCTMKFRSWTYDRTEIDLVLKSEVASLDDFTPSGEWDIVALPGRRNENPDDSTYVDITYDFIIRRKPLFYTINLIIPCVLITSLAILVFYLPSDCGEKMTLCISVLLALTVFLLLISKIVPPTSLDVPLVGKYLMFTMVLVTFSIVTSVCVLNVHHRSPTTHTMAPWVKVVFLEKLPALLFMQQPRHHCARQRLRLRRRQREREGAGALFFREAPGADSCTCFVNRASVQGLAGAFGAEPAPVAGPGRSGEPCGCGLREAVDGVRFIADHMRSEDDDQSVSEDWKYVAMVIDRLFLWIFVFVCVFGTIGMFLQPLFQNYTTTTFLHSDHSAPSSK
T1 sequence (P36544 23-502): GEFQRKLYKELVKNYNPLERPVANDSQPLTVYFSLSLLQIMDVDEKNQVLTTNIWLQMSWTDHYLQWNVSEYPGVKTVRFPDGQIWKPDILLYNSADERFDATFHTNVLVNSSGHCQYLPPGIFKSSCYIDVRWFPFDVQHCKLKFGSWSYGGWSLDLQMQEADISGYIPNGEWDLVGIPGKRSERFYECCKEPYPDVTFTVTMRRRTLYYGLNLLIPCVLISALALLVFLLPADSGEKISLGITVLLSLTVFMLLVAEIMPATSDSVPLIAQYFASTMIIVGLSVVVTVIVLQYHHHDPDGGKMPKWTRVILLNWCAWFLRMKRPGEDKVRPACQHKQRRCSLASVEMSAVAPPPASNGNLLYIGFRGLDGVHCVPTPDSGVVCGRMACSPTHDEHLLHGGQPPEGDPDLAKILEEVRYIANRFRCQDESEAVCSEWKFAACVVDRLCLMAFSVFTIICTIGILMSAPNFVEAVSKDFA
α3β4 nAChR, sequence (P32297 32-505): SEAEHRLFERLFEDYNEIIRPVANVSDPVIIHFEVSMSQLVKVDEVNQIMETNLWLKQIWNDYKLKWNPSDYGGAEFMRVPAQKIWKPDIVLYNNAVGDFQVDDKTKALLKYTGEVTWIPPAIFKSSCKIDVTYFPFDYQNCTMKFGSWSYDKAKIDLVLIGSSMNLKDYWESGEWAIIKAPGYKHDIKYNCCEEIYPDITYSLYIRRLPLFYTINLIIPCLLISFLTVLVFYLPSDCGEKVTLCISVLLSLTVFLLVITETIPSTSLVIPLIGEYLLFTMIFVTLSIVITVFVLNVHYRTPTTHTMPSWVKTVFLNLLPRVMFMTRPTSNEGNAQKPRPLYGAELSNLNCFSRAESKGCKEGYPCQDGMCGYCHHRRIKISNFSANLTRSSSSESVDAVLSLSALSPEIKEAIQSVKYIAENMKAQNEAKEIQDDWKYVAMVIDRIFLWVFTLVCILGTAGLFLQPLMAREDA
α3β4 nAChR, sequence (P30926 22-498): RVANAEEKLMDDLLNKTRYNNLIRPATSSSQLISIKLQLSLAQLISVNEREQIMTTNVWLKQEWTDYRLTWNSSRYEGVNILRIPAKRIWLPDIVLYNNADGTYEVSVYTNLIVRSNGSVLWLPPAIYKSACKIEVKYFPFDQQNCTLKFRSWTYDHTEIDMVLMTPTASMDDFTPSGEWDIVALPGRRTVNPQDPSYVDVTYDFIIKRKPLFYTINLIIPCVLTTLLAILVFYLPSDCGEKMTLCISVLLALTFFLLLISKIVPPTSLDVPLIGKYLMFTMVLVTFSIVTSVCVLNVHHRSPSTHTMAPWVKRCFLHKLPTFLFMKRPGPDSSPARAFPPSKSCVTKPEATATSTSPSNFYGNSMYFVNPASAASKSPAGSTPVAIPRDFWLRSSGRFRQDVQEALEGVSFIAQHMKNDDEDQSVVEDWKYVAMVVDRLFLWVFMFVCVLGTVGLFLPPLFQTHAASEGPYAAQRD

Row | SMILES | melting point [°C] | Potentiated response (human α7 nAChR) | Relative response (human α7 nAChR) | activation / partial agonism of α4β2 nAChR (α4β2 nAChR) | antagonist activity at α4β2 (α4β2 nAChR) | functional classification at α7 nAChR (human α7 nAChR) | antagonism of α3β4 (α3β4 nAChR) | PAM-dependent response compared to the parent unsubstituted diEPP (human α7 nAChR; co-application with PNU-120596) [%] | suppression of LPS-stimulated secretion of TNF-α [1] | antinociceptive activity (mouse pain models) | PAM-dependent currents relative to ACh (human α7 nAChR; co-application with PNU-120596, meta-substituted series) [fold]
1 | CCN1CCN(c2ccc(F)cc2)CC1 [Compound 1r, 1-ethyl-4-(4-fluorophenyl)piperazine] | 30 to 30.5 | 0.0 ± 0.0 | 0.000 ± 0.003 |  |  |  |  |  |  |  | 
2 | CCN1CCN(c2ccc(C(F)(F)F)cc2)CC1 [Compound 1n, 1-ethyl-4-(4-(trifluoromethyl)phenyl)piperazine] | 56.3 to 56.5 | 1.4 ± 0. | 0.000 ± 0.004 |  |  |  |  |  |  |  | 
3 | CC[N+]1(CC)CCN(c2ccc(C(F)(F)F)cc2)CC1.[I-] [Compound 2n, 1,1-diethyl-4-(4-(trifluoromethyl)phenyl)piperazin-1-ium iodide] |  | 61.8 ± 7.7 | 0.032 ± 0.003 | neither to be partial agonists | nor to have significant antagonist activity | candidate silent agonists |  |  |  |  | 
4 | CC[N+]1(CC)CCN(c2cccc(OC)c2)CC1.[I-] [Compound 2g, 1,1-diethyl-4-(3-methoxyphenyl)piperazin-1-ium iodide] |  | 0.6 ± 0.2 | 0.011 ± 0.011 |  |  | no significant activity as either partial agonists or as silent agonists | significant antagonism | 50 |  |  | 
5 | CC[N+]1(CC)CCN(c2ccc(C)cc2)CC1.[I-] [Compound 2a, 1,1-diethyl-4-p-tolylpiperazin-1-ium iodide] | 147.4 to 148.8 | 3.6 ± 2.0 | 0.011 ± 0.003 |  |  | candidate silent agonists |  |  |  |  | 
6 | O=C(c1ccc(-c2cccc(C(F)(F)F)c2)o1)N1CCN2CCC1CC2 [NS-6740, 1,4-diazabicyclo[3.2.2]nonan-4-yl(5-(3-(trifluoromethyl)phenyl)furan-2-yl) methanone] |  |  |  |  |  |  |  |  | more efficacious than some agonists (including choline) | showed antinoceptive activity | 
7 | CC[N+]1(CC)CCN(c2cccc(C)c2)CC1.[I-] [Compound 2d, 1,1-diethyl-4-m-tolylpiperazin-1-ium iodide] | 144 to 145 | 0.2 ± 0.1 | 0.001 ± 0.000 |  |  | no significant activity as either partial agonists or as silent agonists |  |  |  |  | 
8 | CC[N+]1(CC)CCN(c2cccc(Br)c2)CC1.[I-] [Compound 2p, 4-(3-bromophenyl)-1,1-diethylpiperazin-1-ium iodide] |  | 10.0±1.7 | 0.040 ± 0.006 | neither to be partial agonists | nor to have significant antagonist activity | candidate silent agonists |  |  |  |  | 9.98

From US11155551B2, “Nicotinic acetylcholine receptor silent agonists” (University of Florida Research Foundation, Inc., priority 2015, dated 2021)
